Assay results as given in patent US8202893B2, “Cannabinergic lipid ligands” (University of Connecticut, priority 2004, dated 2012).
Where two headings read alike, the source gives them in different places.

Legend:
CB2 receptor = target: T1, CB2 receptor (Mus musculus, UniProt P47936); test: CB2 receptor binding, [3H]CP-55,940 displacement; details: mouse spleen membranes
T1 construct: membranes were prepared from frozen mouse spleen; from tissue; host or cells: mouse spleen
Procedure: (§1) The treated membranes were subsequently used in the binding assay described below. Approximately 30 μg of membranes were incubated in silanized 96-well microtiter plate with TME containing 0.1% essentially fatty acid-free bovine serum albumin (BSA), 0.8 nM [^3H] CP-55,940, and various concentrations of test materials in a final volume of 200 μL. The assays were incubated for 1 hour at 30° C. and then immediately filtered using Packard Filtermate 196 harvester and Whatman GF/C filterplates and washed with wash buffer (TME) containing 0.5% BSA. Radioactivity was detected using MicroScint 20 scintillation cocktail added directly to the dried filterplates, and the filterplates were counted using a Packard Instruments Top-Count. Nonspecific binding was assessed using 100 nM CP-55,940. Data collected from three independent experiments performed with duplicate determinations was normalized between 100% and 0% specific binding for [^3H] CP-55,940, determined using buffer and 100 nM CP-55,940. The normalized data was analyzed using a 4-parameter nonlinear logistic equation to yield IC50 values.
For the CB2 receptor binding studies, membranes were prepared from frozen mouse spleen essentially according to the procedure of P. R. Dodd et al, A Rapid Method for Preparing Synaptosomes: Comparison with Alternative Procedures, Brain Res., 226, 107-118 (1981) which is incorporated by reference herein. Silanized centrifuge tubes were used throughout to minimize receptor loss due to adsorption. The CB2 binding assay was conducted in the same manner as for the CB1 binding assay. The binding affinities (Ki) were also expressed in nanomoles (nM).

anandamide transporter = test: [3H]Anandamide transporter competition assay; type: cell-based; details: human CCF-STG1 astrocytoma cells, 10 nM [3H]anandamide; read-out: IC50 AT inhibition
Procedure: Human CCF-STG1 astrocytoma cells (American Type Culture collection) were grown in RPMI1640 culture medium containing 2 mM L-glutamine, 4.5 g/L glucose, 10 mM HEPES, and 1.0 mM sodium pyruvate, 10% FBS, cultures at 37° C. with 5% CO2. For standard competition assays, confluent cells grown in 24-well plates were rinsed and preincubated for 10 min at 37° C. in assay buffer (Hank's Balanced Salt Solution containing 0.1% DMSO, 10 mM HEPES) plus test compounds (at their final concentrations of 0.01-100 μM). After having discarded the preincubation media, the cells were incubated for 4 min in 0.2 ml assay buffer containing 10 nM [^3H] anandamide (137.6 Ci/mmol, New England Nuclear) plus test compounds. Reactions were stopped by removing the incubation media and rinsing the cells three times with 0.5 ml of ice-cold HBSS buffer containing 0.1% fatty acid-free Bovine Serum Albumin (sigma). Radioactive material in Triton X-100 cell extracts was measured by liquid scintillation counting. A minimum of three independent experiments conducted in six replicates was used to define the concentration needed to produce half-maximal inhibition (IC50) for each compound. IC50 values were obtained by nonlinear regression fitting of the data, using the PRIZM software package. Data are expressed as mean±SEM.

CB1 cannabinoid receptor = target: T2, CB1 cannabinoid receptor (Rattus norvegicus, UniProt P20272); test: CB1 receptor binding, [3H]CP-55,940 displacement; details: rat forebrain membranes, read-out: Ki CB1 (nM) (o/w PMSFQ)
T2 construct: membranes were prepared from rat forebrain membranes; from tissue; host or cells: rat forebrain
Procedure: Some inventive analogs were tested for CB2 receptor binding affinity and for CB1 receptor affinity (to determine selectivity). […] The lower the Ki value, the higher the binding affinity. […] For the CB1 receptor binding studies, membranes were prepared from rat forebrain membranes according to the procedure of P. R. Dodd et al, A Rapid Method for Preparing Synaptosomes: Comparison with Alternative Procedures, Brain Res., 107-118 (1981). The binding of the novel analogues to the CB1 cannabinoid receptor was assessed as described in W. A. Devane et al, Determination and Characterization of a Cannabinoid Receptor in a Rat Brain, Mol. Pharmacol., 34, 605-613 (1988) and A. Charalambous et al, 5′-azido Δ^8-THC: A Novel Photoaffinity Label for the Cannabinoid Receptor, J. Med. Chem., 35, 3076-3079 (1992) with the following changes. The above articles are incorporated by reference herein.
Membranes, previously frozen at −80° C., were thawed on ice. To the stirred suspension was added three volumes of TME (25 mM Tris-HCl buffer, 5 mM MgCl2 and 1 mM EDTA) at a pH 7.4. The suspension was incubated at 4° C. for 30 min. At the end of the incubation, the membranes were pelleted and washed three times with TME.
as §1

[1] = target: T3, FAAH (fatty acid amide hydrolase) (Rattus norvegicus, UniProt P97612); test: FAAH screening: inhibition of anandamide metabolism to arachidonic acid; type: biochemical; details: 25 nmoles compound with 25 nmoles AEA, 75 μg enzyme, 250 μL, 15 min
T3 construct: Anandamide Amidase Activity in Rat Brain Microsomes; from tissue; host or cells: rat brain microsomes (by the cited procedure)
T3 sequence (P97612 1-579): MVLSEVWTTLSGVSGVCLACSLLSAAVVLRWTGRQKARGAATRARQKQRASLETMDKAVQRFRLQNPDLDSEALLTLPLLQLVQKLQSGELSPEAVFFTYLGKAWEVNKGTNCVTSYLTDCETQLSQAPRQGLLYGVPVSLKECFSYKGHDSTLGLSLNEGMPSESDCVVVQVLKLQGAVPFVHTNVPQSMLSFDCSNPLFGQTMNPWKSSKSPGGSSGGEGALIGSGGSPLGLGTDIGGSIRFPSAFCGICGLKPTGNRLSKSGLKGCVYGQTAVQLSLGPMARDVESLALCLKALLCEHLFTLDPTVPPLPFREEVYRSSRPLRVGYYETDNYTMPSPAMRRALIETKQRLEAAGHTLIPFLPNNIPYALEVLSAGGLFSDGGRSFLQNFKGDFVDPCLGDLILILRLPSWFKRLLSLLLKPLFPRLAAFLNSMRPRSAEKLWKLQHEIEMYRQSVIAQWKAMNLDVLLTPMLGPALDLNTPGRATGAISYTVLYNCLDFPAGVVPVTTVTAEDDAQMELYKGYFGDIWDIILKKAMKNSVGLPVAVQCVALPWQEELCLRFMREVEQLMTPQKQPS
Procedure: The FAAH (fatty acid amide hydrolase) enzyme preparation was obtained according to the procedure of Lang and Makriyannis et al High Performance Liquid Chromatographic Determination of Anandamide Amidase Activity in Rat Brain Microsomes, Analytical Biochemistry (238): 40-45, 1996.
All compound solutions were made to a concentration of 10 mM in DMSO. Three tests were performed on each compound: hydrolysis, to determine the stability of the compound in assay conditions without the enzyme present; metabolism, to determine the stability of the compound with the enzyme present; and inhibition of anandamide (native substrate) metabolism to arachidonic acid.
Again the reaction mixture was treated in the same manner as described above and the concentrations of AEA and AA were calculated using external standards. Percent inhibition was calculated using the following equation: % Inhib.=(AA15-AA0)i/(AA15-AA0)s where (AA15-AA0)c is the amount of arachidonic acid formed over 15 minutes from AEA with the inhibitor present and (AA15-AA0)s is the amount of arachidonic acid formed over 15 minutes from AEA when the inhibitor is not present. […] The reaction mixtures were treated as described above and the amount of AA formed was calculated. The software package GraphPad Prism was utilized to calculate IC50 and Ki. HPLC Conditions:
Chromatographic separation was achieved using an Ultrasphere ODS Pre-column (4.6×45 mm) from Beckman. Hardware consisted of a Waters Millennium HPLC system with a 20 μL injection loop. The mobile phase consisted of 8.5% o-phosphoric acid:acetonitrile (3:7), run isocratically at a rate of 1 mL/min and detection at 204 nm. The total run time was 8 minutes with AEA eluting at 2.2 minutes and AA at 6.0 minutes.

[2] = with PMSF (second value of cell)
[3] = without PMSF (first value of cell)

T2 sequence (P20272 whole entry): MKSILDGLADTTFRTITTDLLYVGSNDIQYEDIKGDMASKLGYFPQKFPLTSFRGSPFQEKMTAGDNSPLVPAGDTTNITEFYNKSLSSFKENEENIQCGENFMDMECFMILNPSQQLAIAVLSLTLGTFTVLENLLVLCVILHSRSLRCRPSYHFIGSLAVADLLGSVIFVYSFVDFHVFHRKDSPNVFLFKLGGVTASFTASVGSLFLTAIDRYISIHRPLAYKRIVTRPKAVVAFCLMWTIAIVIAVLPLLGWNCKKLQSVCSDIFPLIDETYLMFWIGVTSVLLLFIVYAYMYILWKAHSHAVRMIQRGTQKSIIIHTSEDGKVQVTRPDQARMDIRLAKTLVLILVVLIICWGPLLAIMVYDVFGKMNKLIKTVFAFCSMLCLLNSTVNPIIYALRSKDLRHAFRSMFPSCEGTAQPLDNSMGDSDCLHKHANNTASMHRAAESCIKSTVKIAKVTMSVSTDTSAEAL
T1 sequence (P47936 whole entry): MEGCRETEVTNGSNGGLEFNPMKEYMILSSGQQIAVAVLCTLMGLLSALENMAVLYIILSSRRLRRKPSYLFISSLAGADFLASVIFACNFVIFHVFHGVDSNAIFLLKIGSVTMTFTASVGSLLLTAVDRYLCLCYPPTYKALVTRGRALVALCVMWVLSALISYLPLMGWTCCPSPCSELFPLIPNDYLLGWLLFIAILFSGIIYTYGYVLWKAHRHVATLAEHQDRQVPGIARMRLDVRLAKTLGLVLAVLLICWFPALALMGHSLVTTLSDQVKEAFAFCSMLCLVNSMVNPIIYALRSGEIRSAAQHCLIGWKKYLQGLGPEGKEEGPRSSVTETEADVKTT

| SMILES | Ki (CB2 receptor) [nM] | IC50 (anandamide transporter) [nM] | Ki (CB1 cannabinoid receptor; [2]) [nM] | Ki (CB1 cannabinoid receptor; [3]) [nM] | FAAH % Inhibition [1] [%] |
| --- | --- | --- | --- | --- | --- |
| [N-]=[N+]=NCCCCC/C=C\C/C=C\C/C=C\C/C=C\CCCC(=O)NC1CC1 [Compound A5] | 57.6 | 2900 | 0.9 | 26.7 | 7 |
| [N-]=[N+]=NCCCC/C=C\C/C=C\C/C=C\C/C=C\CCCC(=O)NC1=NCCS1 [Compound A8] | 513 | 2300 | 106 | 1300 | 49 |
| [N-]=[N+]=NCCCC/C=C\C/C=C\C/C=C\C/C=C\CCCC(=O)NC1CCC1 [Compound A9] | 72.4 | – | 31.9 | 112 | 58 |
| CC(C)NC(=O)CCC/C=C\C/C=C\C/C=C\C/C=C\CCCCN=C=S [Compound A10] | 52.7 | – | 7.7 | 95.2 | 84 |
| O=C(CCC/C=C\C/C=C\C/C=C\C/C=C\CCCCN=C=S)NCC1CC1 [Compound A11] | 70.9 | – | 34.2 | 91.7 | 90 |
| [N-]=[N+]=NCCCCC/C=C\C/C=C\C/C=C\C/C=C\CCCC(=O)Nc1ccc(O)cc1 [Compound A13] | 335 | 700 | 531 | 3830 | 33 |
| [N-]=[N+]=NCCCCC/C=C\C/C=C\C/C=C\C/C=C\CCCC(=O)NC1=NCCS1 [Compound A14] | 243 | 1200 | 144 | 428 | 48 |
| COc1cc(CNC(=O)CCC/C=C\C/C=C\C/C=C\C/C=C\CCCCCN=[N+]=[N-])ccc1O [Compound A15] | 74.7 | – | 13.2 | 48.8 | 38 |
| O=C(CCC/C=C\C/C=C\C/C=C\C/C=C\CCCCCO)NC1CC1 [Compound A17] | 38.7 | 35300 | 3.9 | 209 | 61 |
| N#CCCCCC/C=C\C/C=C\C/C=C\C/C=C\CCCC(=O)NC1CC1 [Compound A19] | 5.7 | 23500 | 0.04 | 32.9 | 57 |
| O=C(CCC/C=C\C/C=C\C/C=C\C/C=C\CCCCCCl)NC1CC1 [Compound A20] | 28.3 | 4100 | 0.17 | 57.9 | 67 |
| CCCCCN(C)C/C=C\C/C=C\C/C=C\C/C=C\CCCC(=O)NC1CC1 [Compound A21] | 238 | – | 66.3 | 76.5 | – |
